Tests used:
NCI 58 cell line panel = assay: NCI one-dose SRB assay, whole panel / subpanel summary; assay type: cell-based, human
Protocol: (§1) The structures of all the newly prepared pyridine-ureas 8a–n were submitted to the National Cancer Institute (NCI) Developmental Therapeutic Program. Eight compounds 8b, 8d, 8e, 8i, 8j and 8l–n were selected to be examined for their in vitro growth inhibitory activity. The anticancer assays were carried out according to the protocol of the Drug Evaluation Branch, NCI, Bethesda. The selected pyridine-ureas were tested at one dose primary anticancer assay against a panel of approximately 58 cancer lines (concentration 10^−5 M). The tested human cancer cell lines emerged from nine different cancer subtypes: leukemia, colon, melanoma, ovarian, lung, CNS, renal, breast and prostate cancers. The sulforhodamine B (SRB) protein assay was adopted to estimate the cell viability and growth. The results were reported as mean-graph of the percentage growth of the treated cells, and presented as percentage growth inhibition (GI%) caused by the test compounds (Table 2).
(§2) The anticancer assays were performed in accordance with the protocol of the Drug Evaluation Branch, NCI, Bethesda. A 48 h drug exposure protocol was used and sulforhodamine B (SRB) protein assay was applied to estimate the cell viability and growth, as reported earlier.

SF-295 = assay: NCI one-dose SRB assay (CNS Cancer); assay type: cell-based, human
Protocol: as §1, §2

SNB-19 = assay: NCI one-dose SRB assay (CNS Cancer); assay type: cell-based, human
Protocol: as §1, §2

SNB-75 = assay: NCI one-dose SRB assay (CNS Cancer); assay type: cell-based, human
Protocol: as §1, §2

UACC-257 = assay: NCI one-dose SRB assay (Melanoma); assay type: cell-based, human
In short: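 Tested once at 10^−5 M over 48 h. SRB protein staining measured growth. GI% values.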

IGROV1 = assay: NCI one-dose SRB assay (Ovarian Cancer); assay type: cell-based, human
Protocol: as §1, §2

NCI/ADR-RES = assay: NCI one-dose SRB assay (Ovarian Cancer); assay type: cell-based, human
Protocol: as §1, §2

OVCAR-3 = assay: NCI one-dose SRB assay (Ovarian Cancer); assay type: cell-based, human
Protocol: as §1, §2

OVCAR-4 = assay: NCI one-dose SRB assay (Ovarian Cancer); assay type: cell-based, human
Protocol: as §1, §2

OVCAR-5 = assay: NCI one-dose SRB assay (Ovarian Cancer); assay type: cell-based, human
Protocol: as §1, §2

OVCAR-8 = assay: NCI one-dose SRB assay (Ovarian Cancer); assay type: cell-based, human
Protocol: as §1, §2

SK-OV-3 = assay: NCI one-dose SRB assay (Ovarian Cancer); assay type: cell-based, human
Protocol: as §1, §2

786-0 = assay: NCI one-dose SRB assay (Renal Cancer); assay type: cell-based, human
Protocol: as §1, §2

A498 = assay: NCI one-dose SRB assay (Renal Cancer); assay type: cell-based, human
Protocol: as §1, §2

RXF 393 = assay: NCI one-dose SRB assay (Renal Cancer); assay type: cell-based, human
Protocol: as §1, §2

SN12C = assay: NCI one-dose SRB assay (Renal Cancer); assay type: cell-based, human
Protocol: as §1, §2

TK-10 = assay: NCI one-dose SRB assay (Renal Cancer); assay type: cell-based, human
Protocol: as §1, §2

UO-31 = assay: NCI one-dose SRB assay (Renal Cancer); assay type: cell-based, human
Protocol: as §1, §2

DU-145 = assay: NCI one-dose SRB assay (Prostate); assay type: cell-based, human
Protocol: as §1, §2

PC-3 = assay: NCI one-dose SRB assay (Prostate); assay type: cell-based, human
Protocol: as §1, §2

BT-549 = assay: NCI one-dose SRB assay (Breast Cancer); assay type: cell-based, human
Protocol: as §1, §2

HS 578T = assay: NCI one-dose SRB assay (Breast Cancer); assay type: cell-based, human
Protocol: as §1, §2

MCF7 = assay: NCI one-dose SRB assay (Breast Cancer); assay type: cell-based, human
Protocol: as §1, §2

MDA-MB-231 = assay: NCI one-dose SRB assay (Breast Cancer); assay type: cell-based, human
Protocol: as §1, §2

MDA-MB-468 = assay: NCI one-dose SRB assay (Breast Cancer); assay type: cell-based, human
Protocol: as §1, §2

T-47D = assay: NCI one-dose SRB assay (Breast Cancer); assay type: cell-based, human
Protocol: as §1, §2

[1] = Homo sapiens, 10 μM, read-out: Percentage growth inhibition (GI%)

COc1ccc(-c2ccc(NC(=O)Nc3ccc(Cl)c(C(F)(F)F)c3)c(C)n2)cc1 [Compound 8e, 1-(4-Chloro-3-(trifluoromethyl)phenyl)-3-(6-(4-methoxyphenyl)-2-methylpyridin-3-yl)urea]
inhibition at 10 µM (NCI 58 cell line panel; Homo sapiens, 10 μM, one dose, read-out: mean inhibition (mean % growth inhibition over NCI 58 cell line panel)): 49% | Mean Growth Percent (NCI 58 cell line panel; One Dose Mean Graph, 1.00E-5 Molar): 51.42% | inhibition at 10 µM (SF-295; Homo sapiens, SF-295, 10 μM, read-out: Percentage growth inhibition (GI%)): 54% | Growth Percent (SF-295; SF-295, 1.00E-5 Molar): 46.97% | inhibition at 10 µM (SNB-19; Homo sapiens, SNB-19, 10 μM, read-out: Percentage growth inhibition (GI%)): 43% | Growth Percent (SNB-19; SNB-19, 1.00E-5 Molar): 57.33% | inhibition at 10 µM (SNB-75; Homo sapiens, SNB-75, 10 μM, read-out: Percentage growth inhibition (GI%)): 27% | Growth Percent (SNB-75; SNB-75, 1.00E-5 Molar): 73.44% | inhibition at 10 µM (UACC-257; Homo sapiens, UACC-257, 10 μM, read-out: Percentage growth inhibition (GI%)): 43% | Growth Percent (UACC-257; UACC-257, 1.00E-5 Molar): 57.07% | inhibition at 10 µM (IGROV1; Homo sapiens, IGROV-1, IGROV1, 10 μM, read-out: Percentage growth inhibition (GI%)): 48% | Growth Percent (IGROV1; IGROV1, 1.00E-5 Molar): 52.86% | Growth Percent (NCI/ADR-RES; 1.00E-5 Molar): 49.78% | inhibition at 10 µM (NCI/ADR-RES; [1]): 51% | inhibition at 10 µM (OVCAR-3; Homo sapiens, OVCAR-3, 10 μM, read-out: Percentage growth inhibition (GI%)): 73% | Growth Percent (OVCAR-3; OVCAR-3, 1.00E-5 Molar): 27.65% | inhibition at 10 µM (OVCAR-4; Homo sapiens, OVCAR-4, 10 μM, read-out: Percentage growth inhibition (GI%)): 55% | Growth Percent (OVCAR-4; OVCAR-4, 1.00E-5 Molar): 45.11% | inhibition at 10 µM (OVCAR-5; Homo sapiens, OVCAR-5, 10 μM, read-out: Percentage growth inhibition (GI%)): 11% | Growth Percent (OVCAR-5; OVCAR-5, 1.00E-5 Molar): 89.11% | inhibition at 10 µM (OVCAR-8; Homo sapiens, OVCAR-8, 10 μM, read-out: Percentage growth inhibition (GI%)): 43% | Growth Percent (OVCAR-8; OVCAR-8, 1.00E-5 Molar): 57.40% | inhibition at 10 µM (SK-OV-3; Homo sapiens, SK-OV-3, 10 μM, read-out: Percentage growth inhibition (GI%)): 32% | Growth Percent (SK-OV-3; SK-OV-3, 1.00E-5 Molar): 68.11% | Growth Percent (786-0; 786-0, 1.00E-5 Molar): 56.08% | inhibition at 10 µM (786-0; Homo sapiens, 786-0, 10 μM, read-out: Percentage growth inhibition (GI%)): 44% | Growth Percent (A498; A498, 1.00E-5 Molar): 57.74% | inhibition at 10 µM (A498; Homo sapiens, A498, 10 μM, read-out: Percentage growth inhibition (GI%)): 43% | inhibition at 10 µM (RXF 393; Homo sapiens, RXF 393, 10 μM, read-out: Percentage growth inhibition (GI%)): 19% | Growth Percent (RXF 393; RXF 393, 1.00E-5 Molar): 81.37% | Growth Percent (SN12C; 1.00E-5 Molar): 57.41% | inhibition at 10 µM (SN12C; [1]): 43% | inhibition at 10 µM (TK-10; Homo sapiens, TK-10, 10 μM, read-out: Percentage growth inhibition (GI%)): 35% | Growth Percent (TK-10; TK-10, 1.00E-5 Molar): 65.92% | inhibition at 10 µM (UO-31; Homo sapiens, UO-31, 10 μM, read-out: Percentage growth inhibition (GI%)): 61% | Growth Percent (UO-31; UO-31, 1.00E-5 Molar): 39.33% | Growth Percent (DU-145; DU-145, 1.00E-5 Molar): 54.52% | inhibition at 10 µM (DU-145; Homo sapiens, DU-145, 10 μM, read-out: Percentage growth inhibition (GI%)): 46% | inhibition at 10 µM (PC-3; Homo sapiens, PC-3, 10 μM, read-out: Percentage growth inhibition (GI%)): 86% | Growth Percent (PC-3; PC-3, 1.00E-5 Molar): 14.67% | Growth Percent (BT-549; BT-549, 1.00E-5 Molar): 66.19% | inhibition at 10 µM (BT-549; Homo sapiens, BT-549, 10 μM, read-out: Percentage growth inhibition (GI%)): 34% | Growth Percent (HS 578T; 1.00E-5 Molar): 76.98% | inhibition at 10 µM (HS 578T; [1]): 24% | inhibition at 10 µM (MCF7; Homo sapiens, MCF7, 10 μM, read-out: Percentage growth inhibition (GI%)): 64% | Growth Percent (MCF7; MCF7, 1.00E-5 Molar): 36.68% | inhibition at 10 µM (MDA-MB-231; Homo sapiens, MDA-MB-231, 10 μM, read-out: Percentage growth inhibition (GI%)): 15% | Growth Percent (MDA-MB-231; MDA-MB-231/ATCC, 1.00E-5 Molar): 85.04% | inhibition at 10 µM (MDA-MB-468; Homo sapiens, MDA-MB-468, 10 μM, read-out: Percentage growth inhibition (GI%)): 62% | Growth Percent (MDA-MB-468; MDA-MB-468, 1.00E-5 Molar): 38.52% | Growth Percent (T-47D; 1.00E-5 Molar): 21.49% | inhibition at 10 µM (T-47D; Homo sapiens, T47D, 10 μM, read-out: Percentage growth inhibition (GI%)): 79% | melting point: 195 to 197 °C

Source: article PMC6100082, “Pyridine-Ureas as Potential Anticancer Agents: Synthesis and In Vitro Biological Evaluation” (Molecules : A Journal of Synthetic Chemistry and Natural …, 2018)
